Values quoted from earlier work as cited in patent US6086864A, “Pharmaceutical formulations comprising polythiourea and methods of use thereof” (Merrell Pharmaceuticals Inc., priority 1997, dated 2000).

What was measured:
[1] = test system: viral protein responsible for cell recognition; details: purified form of heparin
[2] = in vivo

heparin
inhibition of host cell infection [1]: limited inhibition of host cell infection
side effects [2]: hemorrhage and increased clot formation time as well as thrombocytopenia
